In US11931424B2, “Combination MCL-1 inhibitors with anti-body drug conjugates” (Gilead Sciences, Inc., priority 2021, dated 2024):

System: panel of breast cancer cell lines
Experiment: Compound A with targeted agents and chemotherapies, 72-hour in vitro proliferation assays
Assay type: cell-based
Conditions: 72-hour proliferation
[1] = AU565 cell line, compound A × partner
[2] = BT-20 cell line, compound A × partner
[3] = BT-474 cell line, compound A × partner
[4] = BT-549 cell line, compound A × partner
[5] = CAL-51 cell line, compound A × partner
[6] = CAL-85-1 cell line, compound A × partner
[7] = CAL-120 cell line, compound A × partner
[8] = CAL-148 cell line, compound A × partner
[9] = CAMA-1 cell line, compound A × partner
[10] = DU-4475 cell line, compound A × partner
[11] = EVSA-T cell line, compound A × partner
[12] = MCF7 cells, Compound A × partner agent
[13] = MDA-MB-175-VII cells, Compound A × partner agent
[14] = MDA-MB-231 cells, Compound A × partner agent
[15] = MDA-MB-361 cells, Compound A × partner agent
[16] = MDA-MB-436 cells, Compound A × partner agent
[17] = MDA-MB-453 cells, Compound A × partner agent
[18] = MDA-MB-468 cells, Compound A × partner agent
[19] = SK-BR-3 cells, Compound A × partner agent
[20] = SUM159PT cells, combination of compound A with the named agent
[21] = T47D cells, combination of compound A with the named agent
[22] = ZR-75-1 cells, combination of compound A with the named agent
[23] = ZR-75-30 cells, combination of compound A with the named agent

## C[C@]12CC[C@@H]3c4ccc(O)cc4C[C@@H](CCCCCCCCC[S+]([O-])CCCC(F)(F)C(F)(F)F)[C@H]3[C@@H]1CC[C@@H]2O (stereo partly drawn) [Fulvestrant]
[1]
  Bliss Volume: 6.82
  HSA volume: 2.40
  Loewe Volume: 4.57
  Synergy Score: 3.43
[2]
  Bliss Volume: 3.55
  HSA volume: 3.62
  Loewe Volume: 3.44
  Synergy Score: 8.19
[3]
  Bliss Volume: 2.68
  HSA volume: 1.47
  Loewe Volume: 1.42
  Synergy Score: 6.48
[4]
  Bliss Volume: 3.56
  HSA volume: 7.74
  Loewe Volume: 7.73
  Synergy Score: 6.08
[5]
  Bliss Volume: 0.71
  HSA volume: −1.89
  Loewe Volume: 0.82
  Synergy Score: 0.47
[6]
  Bliss Volume: −4.57
  HSA volume: −0.20
  Loewe Volume: −0.68
  Synergy Score: 2.63
[7]
  Bliss Volume: −4.96
  HSA volume: −4.48
  Loewe Volume: −4.09
  Synergy Score: 0.28
[8]
  Bliss Volume: −1.80
  HSA volume: −2.13
  Loewe Volume: −0.78
  Synergy Score: 4.58
[9]
  Bliss Volume: 4.38
  HSA volume: −0.63
  Loewe Volume: −0.83
  Synergy Score: 2.09
[10]
  Bliss Volume: 4.93
  HSA volume: 0.13
  Loewe Volume: 4.51
  Synergy Score: 2.58
[11]
  Bliss Volume: 6.75
  HSA volume: 1.08
  Loewe Volume: 1.59
  Synergy Score: 3.72
HCC38, compound A × partner
  Bliss Volume: −3.19
  HSA volume: −1.37
  Loewe Volume: −1.82
  Synergy Score: 2.63
HCC70, compound A × partner
  Bliss Volume: 10.34
  HSA volume: 9.70
  Loewe Volume: 10.67
  Synergy Score: 17.18
HCC1143, compound A × partner
  Bliss Volume: 0.82
  HSA volume: −4.16
  Loewe Volume: 0.02
  Synergy Score: 2.79
HCC1569, compound A × partner
  Bliss Volume: 3.84
  HSA volume: 4.70
  Loewe Volume: 5.59
  Synergy Score: 5.92
HCC1806, compound A × partner
  Bliss Volume: −0.20
  HSA volume: −0.86
  Loewe Volume: 1.90
  Synergy Score: 2.60
HCC1937, compound A × partner
  Bliss Volume: 2.31
  HSA volume: −0.65
  Loewe Volume: 2.38
  Synergy Score: 2.38
HCC1954, compound A × partner
  Bliss Volume: 11.35
  HSA volume: 12.18
  Loewe Volume: 11.84
  Synergy Score: 16.73
HCC2218, compound A × partner
  Bliss Volume: 1.16
  HSA volume: 1.89
  Loewe Volume: −1.02
  Synergy Score: 3.85
HDQ-P1, compound A × partner
  Bliss Volume: −5.92
  HSA volume: −6.15
  Loewe Volume: −5.56
  Synergy Score: 0.42
HMC-1-8, compound A × partner
  Bliss Volume: 10.58
  HSA volume: 7.21
  Loewe Volume: 7.81
  Synergy Score: 13.30
JIMT-1, compound A × partner
  Bliss Volume: 5.80
  HSA volume: 0.54
  Loewe Volume: 4.52
  Synergy Score: 1.26
KPL-1, compound A × partner
  Bliss Volume: 0.30
  HSA volume: 1.12
  Loewe Volume: 1.04
  Synergy Score: 2.75
[12]
  Bliss Volume: 11.46
  HSA volume: 11.54
  Loewe Volume: 11.41
[13]
  Bliss Volume: 11.56
  HSA volume: 1.65
  Loewe Volume: 10.58
  Synergy Score: 7.62
[14]
  Bliss Volume: 1.26
  HSA volume: −0.76
  Loewe Volume: 1.50
  Synergy Score: 1.17
[15]
  Bliss Volume: −3.29
  HSA volume: −1.23
  Loewe Volume: −0.47
  Synergy Score: 3.34
[16]
  Bliss Volume: 1.52
  HSA volume: 2.87
  Loewe Volume: 2.94
  Synergy Score: 3.30
[17]
  Bliss Volume: −0.77
  HSA volume: −3.96
  Loewe Volume: −1.85
  Synergy Score: 4.79
[18]
  Bliss Volume: 6.94
  HSA volume: 6.17
  Loewe Volume: 7.22
[19]
  Bliss Volume: −2.14
  HSA volume: −3.78
  Loewe Volume: −2.67
  Synergy Score: 2.05
[20]
  Bliss Volume: 2.51
  HSA volume: 0.14
  Loewe Volume: 2.16
  Synergy Score: 1.23
[21]
  Bliss Volume: 0.17
  HSA volume: 2.12
  Loewe Volume: 3.30
  Synergy Score: 4.16
[22]
  Bliss Volume: 5.80
  HSA volume: 4.00
  Loewe Volume: 6.17
  Synergy Score: 4.22
[23]
  Bliss Volume: 1.91
  HSA volume: 1.18
  Loewe Volume: 1.80
  Synergy Score: 4.50
